Reference: article PMC10726354, “Design, Synthesis, and Biological Evaluation of Small-Molecule-Based Radioligands with Improved Pharmacokinetic Properties for Imaging of Programmed Death Ligand 1” (Journal of Medicinal Chemistry, 2023)

Target: T1, PD-L1 (Homo sapiens, UniProt Q9NZQ7)
T1 construct: expressed in transfected cells; host or cells: PC3 cells (human prostate carcinoma), stably transduced
Assay: Saturation binding assay on live PC3 PD-L1 overexpressing cells
Protocol: For assessing the binding affinity of compounds [^64Cu]Cu-1–6, PC3 cells transduced with PD-L1 were used. Dissociation constants in equilibrium (KD) and maximum number of binding sites (Bmax) were determined in a saturation binding assay. The assays were performed with the addition of 2.5% bovine serum albumin (BSA) in the medium to prevent unspecific binding to plastic wells, as reported previously for our first radioligands.[1]
For saturation binding, cells were trypsinized (0.05% Trypsin–EDTA, Gibco, USA), counted, and diluted to ∼160,000 cells/mL. 0.25 mL of the cell solution was then added to each well of a 48-well plate (Falcon Multiwell #353078) and grown for at least 2 days.
To determine the affinity (KD) and the number of binding sites (Bmax) of the herein described PD-L1 small-molecule ligands, saturation binding was performed in at least three independent experiments, as described before.[45] Cells were brought to room temperature followed by cooling on ice (each 15 min). The medium was removed and replaced with 200 μL assay buffer [PBS + 2.5% (w/v) BSA] for total binding (TB) conditions or assay buffer containing 300 μM BMS-1166 (in DMSO, resulting in 0.03% v/v) for the assessment NSB. After 15 min preincubation, 200 μL of each of the eight serial 1:1 dilutions (500 to 3.91 nM) of the respective radioligand was added (in triplicate). Cells were then incubated for 90 min at 4 °C, washed (3 × 1 min), and lysed in 500 μL of 0.1 M NaOH + 1% SDS. Radioactivity of the lysate was measured and decay corrected to a reference time (end of radiolabeling). An additional plate was subjected to the same conditions (preincubation, incubation, and washing) using PBS without BSA for each experiment, and the protein content of these lysates was determined by BCA assay. From CPM measurements, final values (pmol/mg protein) were calculated using the mean protein content and molar activity.
Processed data were then subjected to nonlinear iterative curve fitting (GraphPad Prism 9) to yield Bmax (in pmol/mg protein) and KD (in nM).

T1 sequence (Q9NZQ7 19-290): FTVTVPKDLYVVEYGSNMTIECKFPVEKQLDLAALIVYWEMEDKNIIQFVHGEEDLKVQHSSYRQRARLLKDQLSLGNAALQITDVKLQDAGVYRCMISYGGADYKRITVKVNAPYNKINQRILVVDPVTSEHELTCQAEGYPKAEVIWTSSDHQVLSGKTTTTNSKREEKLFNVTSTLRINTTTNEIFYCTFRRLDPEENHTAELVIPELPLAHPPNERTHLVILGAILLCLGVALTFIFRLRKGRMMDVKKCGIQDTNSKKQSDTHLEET

## Cc1c(COc2cc(OCc3cccc(C#N)c3)c(CN3C[C@H](O)C[C@@H]3C(=O)O)cc2Cl)cccc1-c1ccc2c(c1)OCCO2 [BMS-1166, reference compound]
  binding blocked in the saturation assay: ~80%
